# From patent publication US20240252677A1, “ONE-COMPONENT DELIVERY SYSTEM FOR NUCLEIC ACIDS” (The Trustees of the University of Pennsylvania, priority 2021, published 2024)
# How the values were obtained:
# [1] = Stability of DNPs by DLS after storage at 5° C.; format: physicochemical; design: key to Original size distribution type (DLS curve) / Size distribution type (DLS curve): U: DLS curve showed unimodal size distribution; B: DLS curve showed bimodal size distribution; M: DLS curve showed multimodal size distribution; details: for pH Sample: DNPs: IAJD 4.0 mg/mL + Luc-mRNA 0.1 mg/mL, injection in acetate buffer pH 4.00; for PDI / Size (d, nm) / Original size distribution type (DLS curve): IAJD 4.0 mg/mL + Luc-mRNA 0.1 mg/mL; for PDI / Size (d, nm): acetate buffer; for Original size distribution type (DLS curve): before storage, acetate buffer pH 4.00
# Method in brief: (§1)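 DNPs in acetate buffer sized by DLS after storage at 5 °C. Stability ranked Excellent, Good or Not stable according to retention, shrinkage or growth of original size and narrowing or broadening of size distribution.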
# [2] = pKa measurements of individual IAJD molecules by titration; format: physicochemical; details: ethanol saturated with NaCl, titrated with 0.1 M aqueous HCl; individual IAJD molecules, titration
# Method in brief: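 Compound dissolved at 1.5 mg/mL in NaCl-saturated ethanol and titrated with 0.1 M HCl in 7.5 μL steps, pH read by electrode after each addition. pKa taken from the half-equivalence point.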
# liver = experiment: In vivo mRNA delivery, IVIS imaging of organs: liver; design: species or system mice; key to Organs with luminescence: liver: strong: Strong meant the luminescence intensity in that organ was relatively high, compared to other organs; weak: Weak meant the luminescence intensity in that organ was relatively low, compared to other organs; details: Table 17; mice, IVIS, 4-6 h after injection; intensity relative to other organs
# lung = experiment: In vivo mRNA delivery, IVIS imaging of organs: lung; design: species or system mice; key to Organs with luminescence: lung: strong: Strong meant the luminescence intensity in that organ was relatively high, compared to other organs; weak: Weak meant the luminescence intensity in that organ was relatively low, compared to other organs; details: Table 17; mice, IVIS, 4-6 h after injection; intensity relative to other organs
# [3] = Stability of DNPs by DLS after storage at 5° C.; format: physicochemical; design: key: Excellent: the original sizes and distribution types remained almost the same after storage; Good: the original sizes and distribution types changed slightly (size difference was less than 100 nm) or the original size remained almost the same but the DLS curve showed more size distributions after storage
# Method in brief: as §1
# [4] = Dimensions (size, PDI) of DNPs co-assembled from IAJDs and Luc-mRNA by DLS; format: physicochemical
# Method in brief: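 IAJDs (80 mg/mL ethanol stock) rapidly injected into Luc-mRNA (4.0 mg/mL stock) diluted in 10 mM acetate buffer pH 4.0, then vortexed 5 s. Size and polydispersity of resulting DNPs measured by DLS (633 nm laser, 175° detection) at 23 °C.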
# [5] = Table 16, DNPs from IAJD 4 mg/mL and Luc-mRNA 0.10 mg/mL by injection in acetate buffer (10 mM, pH 4.0)
# [6] = Table 17, DNPs used in vivo, IAJD 4 mg/mL, Luc-mRNA 0.10 mg/mL, acetate pH 4.0
pH Sample [1],Size distribution type (DLS curve) ([1]; after 21 days at 5° C.),PDI ([1]; after 21 days at 5° C.),"Size (d, nm) ([1]; after 21 days at 5° C.) [nm]",Original size distribution type (DLS curve) [1],pKa [2],Ranking of stability ([3]; after 21 days at 5° C.),"PDI [4, 5]","Size (d, nm) [4, 5] [nm]","PDI [4, 6]","Size (d, nm) [4, 6] [nm]",Size distribution type (DLS curve) ([1]; after 14 days at 5° C.),PDI ([1]; after 14 days at 5° C.),"Size (d, nm) ([1]; after 14 days at 5° C.) [nm]",Ranking of stability ([3]; after 14 days at 5° C.),Compound,Organs with luminescence: liver (liver),Organs with luminescence: lung (lung)
4.88,(U),0.277,175,(U),6.16,Excellent,0.268,174,0.268,174,–,–,–,–,"CCCCCCCCCCCCCCOc1cc(COC(=O)CCCN2CCN(C)CC2)cc(OCCCCCCCCCCCCC)c1 [IAJD 171, 3-(Tetradecyloxy)-5-(tridecyloxy)benzyl 4-(4-methylpiperazin-1-yl)butanoate]","liver (strong),","Lung (weak),"
4.84,–,–,–,(U),6.03,–,0.203,235,0.203,235,(U),0.219,225,Excellent,"CCCCCCCCCCCCCCOc1cc(COC(=O)CCCN2CCN(CCO)CC2)cc(OCCCCCCCCCCCCC)c1 [IAJD 172, 3-(Tetradecyloxy)-5-(tridecyloxy)benzyl 4-(4-(2-hydroxyethyl)piperazin-1-yl)butanoate]","liver (weak),","Lung (weak),"
4.79,(B),0.376,132,(U),5.91,Good,0.301,139,0.301,139,–,–,–,–,"CCCCCCCCCCCCCCCCOc1cc(COC(=O)CCCN2CCN(C)CC2)cc(OCCCCCCCCCCCCC)c1 [IAJD 173, 3-(Hexadecyloxy)-5-(tridecyloxy)benzyl 4-(4-methylpiperazin-1-yl)butanoate]","liver (strong),","Lung (weak),"
4.76,(B),0.218,153,(B),5.9,Excellent,0.275,159,0.275,159,–,–,–,–,"CCCCCCCCCCCCCCCCCCOc1cc(COC(=O)CCCN2CCN(C)CC2)cc(OCCCCCCCCCCCCC)c1 [IAJD 177, 3-(Octadecyloxy)-5-(tridecyloxy)benzyl 4-(4-methylpiperazin-1-yl)butanoate]","liver (strong),","Lung (weak),"
4.58,(U),0.261,261,(U),5.97,Excellent,0.223,344,0.223,344,–,–,–,–,"CCCCCCCCCCCCCCCCCCOc1cc(COC(=O)CCCN2CCN(CCO)CC2)cc(OCCCCCCCCCCCCC)c1 [IAJD 178, 3-(Octadecyloxy)-5-(tridecyloxy)benzyl 4-(4-(2-hydroxyethyl)piperazin-1-yl)butanoate]","liver (weak),","Lung (weak),"
